The record followed here is ChEMBL document CHEMBL4680309, “Discovery of a potent β-catenin destabilizer for overcoming the resistance of 5-fluorouracil in colorectal cancer” (Bioorg Med Chem, 2021).

The test system of assay [1] is HCT-8. The experiment in a line: Cytotoxicity against human HCT-8 cells assessed as reduction in cell viability at 100 uM incubated for 72 hrs by SRB assay. The format is functional, cell-based. (The SRB assay estimates cell density from bound dye.)
The subject of assay [2] is HCT-8. The experiment in a line: Cytotoxicity against 5-FU resistant human HCT-8 cells assessed as reduction in cell viability incubated for 72 hrs by SRB assay. As to conditions: HCT-8, 72 h. It is filed as functional, cell-based.
The nature of assay [3]: Resistance index, ratio of IC50 for cytotoxicity against 5-FU resistant human HCT-8 cells to IC50 for cytotoxicity against human HCT-8 cells. It is filed as functional.
Assay [4] deals with HCT-116. In words: Cytotoxicity against human HCT-116 cells harboring p53 knock out gene assessed as reduction in cell viability incubated for 72 hrs by SRB assay. The format is functional, cell-based. Conditions: HCT-116, 72 h.
Assay [5] relates to HCT-8. In words: Cytotoxicity against human HCT-8 cells assessed as reduction in cell viability incubated for 72 hrs by SRB assay. As to conditions: HCT-8, 72 h.
Assay [6] has as its system HCT-116. In words: Cytotoxicity against human HCT-116 cells assessed as reduction in cell viability incubated for 72 hrs by SRB assay. As to conditions: HCT-116, 72 h.
The nature of assay [7]: Resistance index, ratio of IC50 for cytotoxicity against human HCT-116 cells harboring p53 knock out gene to IC50 for cytotoxicity against human HCT-116 cells. The format is functional.
In assay [8] the target is T1, Catenin beta-1 (Homo sapiens) (UniProt P35222).
T1 sequence (whole entry): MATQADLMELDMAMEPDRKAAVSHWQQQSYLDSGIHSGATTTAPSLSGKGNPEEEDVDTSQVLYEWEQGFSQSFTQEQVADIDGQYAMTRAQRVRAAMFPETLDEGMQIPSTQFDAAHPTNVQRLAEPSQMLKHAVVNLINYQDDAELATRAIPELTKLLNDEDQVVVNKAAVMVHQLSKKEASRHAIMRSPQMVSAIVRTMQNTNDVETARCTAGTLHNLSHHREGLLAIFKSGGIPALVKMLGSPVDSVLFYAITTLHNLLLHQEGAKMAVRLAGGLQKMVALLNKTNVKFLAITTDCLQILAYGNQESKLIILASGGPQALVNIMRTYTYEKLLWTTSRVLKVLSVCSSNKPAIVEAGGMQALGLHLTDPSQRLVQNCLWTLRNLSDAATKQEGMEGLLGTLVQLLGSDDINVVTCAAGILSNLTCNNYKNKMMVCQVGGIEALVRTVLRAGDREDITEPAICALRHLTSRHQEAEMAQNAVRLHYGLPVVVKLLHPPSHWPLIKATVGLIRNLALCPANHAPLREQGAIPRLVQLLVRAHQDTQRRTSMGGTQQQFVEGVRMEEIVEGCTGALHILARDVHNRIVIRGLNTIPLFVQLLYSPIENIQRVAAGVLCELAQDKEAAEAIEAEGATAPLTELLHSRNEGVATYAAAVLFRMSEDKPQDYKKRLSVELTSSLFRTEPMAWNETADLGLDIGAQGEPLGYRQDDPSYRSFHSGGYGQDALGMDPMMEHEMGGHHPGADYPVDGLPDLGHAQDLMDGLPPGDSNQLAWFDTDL
In words: Degradation of beta-catenin (unknown origin) transfected in 5-FU resistant human HCT-8 cells assessed as reduction in cell viability at 50 uM incubated for 24 hrs by SRB assay. It is filed as cell-based.

The next assay has as its system LoVo. The experiment in a line: Cytotoxicity against human LoVo cells assessed as reduction in cell viability incubated for 72 hrs by SRB assay.
The test system of assay [9] is HCT-8. The experiment in a line: Inhibition of Wnt/beta-Catenin signaling in human HCT-8 cells assessed as reduction in survivin expression incubated for 24 hrs by Western blot analysis. It is filed as cell-based. Conditions: dose 20-100 µM.
Assay [10] is described as follows: Cytotoxicity against human RKOE6 cells assessed as reduction in cell viability incubated for 72 hrs by SRB assay. Conditions: RKOE6, 72 h.
The test system of assay [11] is HCT-8. In words: Inhibition of Wnt/beta-Catenin signaling in 5-FU resistant human HCT-8 cells assessed as reduction in beta-catenin level incubated for 24 hrs by Western blot analysis. Conditions: dose 20-100 µM. It is filed as cell-based.
In assay [12] the target is T1, Catenin beta-1 (Homo sapiens). In words: Degradation of beta-catenin (unknown origin) transfected in 5-FU resistant human HCT-8 cells assessed as reduction in survivin mRNA expression at 50 uM incubated for 24 hrs by qRT-PCR analysis. The format is cell-based. A general note: Quantitative PCR measures a nucleic acid by following its amplification.
Assay [13] relates to HCT-8. The experiment in a line: Inhibition of Wnt/beta-Catenin signaling in human HCT-8 cells assessed as reduction in cyclin D1 expression incubated for 24 hrs by Western blot analysis. The format is cell-based. Conditions: dose 20-100 µM. (A western blot detects proteins with antibodies after separation by electrophoresis.)
The test system of assay [14] is HCT-8. In words: Effect on beta-Catenin mRNA expression in 5-FU resistant human HCT-8 cells at 50 to 100 uM incubated for 24 hrs by qRT-PCR analysis. Conditions: dose 50-100 µM. The format is functional, cell-based.
The test system of assay [15] is HCT-8. The experiment in a line: Inhibition of Wnt/beta-Catenin signaling in 5-FU resistant human HCT-8 cells assessed as reduction in c-myc expression incubated for 24 hrs by Western blot analysis. The format is cell-based. Conditions: dose 20-100 µM.
For assay [16], the system named is HCT-8. The experiment in a line: Inhibition of Wnt/beta-Catenin signaling in 5-FU resistant human HCT-8 cells assessed as reduction in survivin expression incubated for 24 hrs by Western blot analysis. The format is cell-based. Conditions: dose 20-100 µM.
Assay [17] addresses T1, Catenin beta-1 (Homo sapiens). In words: Degradation of beta-catenin (unknown origin) transfected in human HCT-8 cells assessed as reduction in cell viability at 50 uM incubated for 24 hrs by SRB assay. It is filed as cell-based.
The subject of assay [18] is HCT-8. In words: Inhibition of Wnt/beta-Catenin signaling in human HCT-8 cells assessed as reduction in beta-catenin level incubated for 24 hrs by Western blot analysis. The format is cell-based. As to conditions: dose 20-100 µM.
Assay [19] has as its system HCT-8. The experiment in a line: Inhibition of Wnt/beta-Catenin signaling in human HCT-8 cells assessed as reduction in c-myc expression incubated for 24 hrs by Western blot analysis. It is filed as cell-based. Conditions: dose 20-100 µM.
The target in assay [20] is T1, Catenin beta-1 (Homo sapiens). In words: Degradation of beta-catenin (unknown origin) transfected in human HCT-8 cells assessed as reduction in c-myc mRNA expression at 50 uM incubated for 24 hrs by qRT-PCR analysis. It is filed as cell-based.
Assay [21] has as its system HCT-8. In words: Inhibition of Wnt/beta-Catenin signaling in 5-FU resistant human HCT-8 cells assessed as reduction in cyclin D1 expression incubated for 24 hrs by Western blot analysis. As to conditions: dose 20-100 µM. It is filed as cell-based.
Assay [22] concerns the target T1, Catenin beta-1 (Homo sapiens). In words: Degradation of beta-catenin (unknown origin) transfected in 5-FU resistant human HCT-8 cells assessed as reduction in c-myc mRNA expression at 50 uM incubated for 24 hrs by qRT-PCR analysis. It is filed as cell-based.
For assay [23], the system named is HCT-8. In words: Effect on beta-Catenin mRNA expression in human HCT-8 cells at 50 uM incubated for 24 hrs by qRT-PCR analysis. The format is functional, cell-based.
Assay [24] relates to HCT-8. In words: Effect on beta-Catenin mRNA expression in human HCT-8 cells at 100 uM incubated for 24 hrs by qRT-PCR analysis. The format is functional, cell-based.
The target in assay [25] is T1, Catenin beta-1 (Homo sapiens). In words: Degradation of beta-catenin (unknown origin) transfected in human HCT-8 cells assessed as reduction in survivin mRNA expression at 50 uM incubated for 24 hrs by qRT-PCR analysis. The format is cell-based.
Assay [26] has the same target. In words: Degradation of beta-catenin (unknown origin) transfected in human HCT-8 cells assessed as reduction in cyclin D1 mRNA expression at 50 uM incubated for 24 hrs by qRT-PCR analysis. It is filed as cell-based.
Another assay relates to HT-29. In words: Cytotoxicity against human HT-29 cells assessed as reduction in cell viability incubated for 72 hrs by SRB assay. As to conditions: HT-29, 72 h.
The target in assay [27] is T1, Catenin beta-1 (Homo sapiens). In words: Degradation of beta-catenin (unknown origin) transfected in 5-FU resistant human HCT-8 cells assessed as reduction in cyclin D1 mRNA expression at 50 uM incubated for 24 hrs by qRT-PCR analysis. The format is cell-based.
The test system of another assay is SW480. The experiment in a line: Cytotoxicity against human SW480 cells assessed as reduction in cell viability incubated for 72 hrs by SRB assay. Conditions: SW480, 72 h.
Assay [28] concerns the target T1, Catenin beta-1 (Homo sapiens). In words: Degradation of beta-Catenin in human HCT-8 cells assessed as reduction in Wnt-3a-induced beta-Catenin level at 50 to 100 uM incubated for 24 hrs by Western blot analysis. The format is cell-based. As to conditions: dose 50-100 µM.

Structures are written as SMILES. Active and inactive are the calls of the source. The calls are words filed in the database; no cut-off is given here.

As for `CC[C@@H]1C(=O)O[C@@H]2CCCn3cccc3[C@@H]12`, the inhibition result in the assay with HCT-8 [1] was “inactive”.
The IC50 is the concentration at which inhibition is half-maximal. Turning to `O=c1[nH]cc(F)c(=O)[nH]1` [FLUOROURACIL], the concentration for half-maximal inhibition (IC50) was determined as 47 µM in the assay with HCT-8 [2], 4.3 µM with HCT-116 [4], 2.2 µM in the assay on HCT-8 [5] and 1.7 µM in the assay with HCT-116 [6]. The “Ratio IC50” value in assay [3] is on record as 21; in assay [7] it was 2.5.
Regarding `CC[C@H]1C(=O)O[C@@H]2CCCn3cccc3[C@H]21`, in the assay on HCT-8 [1], the inhibition result is “inactive”.
On to `C=C1C(=O)O[C@@H]2CCCn3cccc3[C@@H]12`, for which the result (in assay [8]; in assay [12]; in the assay with HCT-8 [14]; in [17]; in assay [20]; in assay [22]) was inactive. For the same compound, the result (in the assay on HCT-8 [24]; in [25]; in assay [26]; in assay [27]) was inactive. Further, the IC50 stood at 11 µM in the assay on HCT-8 [2]; 10.2 µM in the assay with LoVo; 7.93 µM in assay [10]; 14 µM in the assay on HCT-116 [4]; 11 µM in the assay on HCT-8 [5]; 13 µM with HCT-116 [6]. Also, the IC50 in the assay with HT-29 was 8.52 µM; in the assay with SW480, 16.8 µM. The inhibition result in the assay with HCT-8 [9], in the assay with HCT-8 [11], with HCT-8 [13], in the assay with HCT-8 [15], in the assay on HCT-8 [16] and in the assay with HCT-8 [18] was “Dose-dependent effect” throughout. For the same compound, the inhibition entry in the assay on HCT-8 [19] and in the assay on HCT-8 [21] was “Dose-dependent effect” in each case. Besides, the “Ratio IC50” value in assay [3] and in assay [7] was 1 throughout. The inhibition entry in the assay on HCT-8 [1] is “inactive”. Also, the outcome (with HCT-8 [23]; in assay [28]) was Active.
On to `C=C1C(=O)O[C@@H]2CCCn3c(C=O)ccc3[C@@H]12`, for which the inhibition entry in the assay with HCT-8 [1] is “inactive”.
On the same count and under the same terms, for `CCCCc1ccc2n1CCC[C@H]1OC(=O)[C@@H](C)[C@H]21` the value was “inactive”.
